Each structure is given as a SMILES string. Where two headings read alike, the source gives them in different places.

The record followed here is patent US7169792B2, “Method of treating bacterial infections using gemifloxacin or a salt thereof and a β-lactam antibiotic” (priority 2002, dated 2007).

One assay deals with S. saprophyticus 662. Briefly: checkerboard titration, gemifloxacin and amoxicillin (MIC, FIC). It counts as cell-based, Staphylococcus saprophyticus.
Another assay concerns E. coli ATCC 25922. Briefly: checkerboard titration, gemifloxacin and cefaclor (MIC, FIC). It counts as cell-based, Escherichia coli. As to the method: (§1) Checkerboard microtitre broth dilution plates were prepared using the Hamilton MicroLab AT Plus system (Reno, Nev.). Two-fold serial dilutions (50 μl) of cefotaxime were made in columns 1 through 11 of a microtitre plate. Two-fold serial dilutions of gemifloxacin were prepared manually and the MicroLab AT Plus was used to dispense 25 μl of gemifloxacin at each concentration into rows A through G of the microtitre plate. The concentration range tested varied for each drug/organism combination to encompass the MIC endpoints of the individual components. Column 12 contained two fold serial dilutions of gemifloxacin only, and row H contained two fold serial dilutions of cefotaxie only. The last well (H) in column 12 was used as a positive growth control well, containing only medium and test isolate.
(§2) The bacteria were diluted to a 0.5 McFarland standard and then further diluted 1/50. Each well was inoculated with 25 μl of the isolate to give a final inoculum density of approximately 5×10^5 cfu/ml. The MicroLab AT Plus 2 was used to add the inoculum to the microtitre plates. After inoculation, the plates were covered with a 96 well microtitre plate lid and incubated at 35° C. in ambient air for 20–24 hours. A 10 μl aliquot of the inoculum was plated on trypticase soy agar containing 5% sheep blood to determine the purity of the final test inoculum.
(§3) Following incubation, a microtitre mirror reader (Cooke Instruments Ltd., England) was used to assist in determining the microdilution MIC endpoints. The MIC was determined as the lowest concentration of compound that inhibited visible growth of the organism.
(§4) The Fractional Inhibitory Concentrations (FICs) were calculated using the following formula: (A)/(MICA)+(B)/(MICB)=FICA+FICB=FICIndex wherein: • A is the MIC of drug A in the presence of drug B • B is the MIC of drug B in the presence of drug A • MIC A is the MIC of the organism to drug A alone • MIC B is the MIC of the organism to drug B alone • FIC A is the fractional inhibitory concentration of drug A • FIC B is the fractional inhibitory concentration of drug B
(§5) The FIC indices were interpreted using the following criteria: • ≦0.5=Synergy • >0.5–1=Additive • >1–2=Indifference • >2=Antagonism
3) E. coli ATCC 25922 was obtained from the SmithKline Beecham Anti-Infectives Research Culture Collection and stored at −80° C. in 10% glycerol. Before testing, the isolate was passaged onto agar plates (trypticase soy agar containing 5% sheeps blood) from the frozen stock for two consecutive days. […]
The combined effect of gemifloxacin and cefaclor was investigated in E. coli ATCC 25922 by using the checkerboard titration method described in Example 1. FIC Indices were calculated and interpreted as in Example 1.

In the next assay the test system is E. faecalis ATCC 29212. Briefly: checkerboard titration, gemifloxacin and cefotaxime (MIC, FIC). It counts as cell-based, Enterococcus faecalis. As to the method:
1) The combined effect of gemifloxacin and cefotaxime was investigated in E. faecalis by using a checkerboard titration method. Evaluation for synergistic activity was carried out by calculation of fractional inhibitory concentrations (FICs) according to the method of Eliopoulos et al (1996, Antimicrobial Combinations, Antibiotics in Laboratory Medicine, Victor Lorian, 4th Edition, pp 337–338, Baltimore, Md., Williams and Wilkins).
E. faecalis ATCC 29212 was obtained from the SmithKline Beecham Anti-Infectives Research Culture Collection and stored at −80° C. in 10% glycerol. Before testing, the isolate was passaged onto agar plates (trypticase soy agar containing 5% sheeps blood) from the frozen stock for two consecutive days. Cation adjusted Mueller Hinton broth (BBL, Cockeysville, Md.) was used for the isolate.
as §1, §2, §3, §4, §5

Assay [1] has as its system clinically isolated P. aeruginosa strains. Nature of the assay: checkerboard method, gemifloxacin or ciprofloxacin with ceftazidime, 6 clinical isolates (Example 5). It counts as cell-based, Pseudomonas aeruginosa. The following applies: for FICB: FIC of ceftazidime; for MIC: Pseudomonas aeruginosa. As to the method: (§6) Minimal inhibitory concentrations (MICs) for each separate drug were determined. For wells along the growth-no growth interface, synergy was determined by calculating the Fractional Inhibitory Concentration (FIC) index. The Fractional Inhibitory Concentration (FIC) indices were calculated using the following formula: FICindex=FICA+FICB=[A]/MICA+[B]/MICB • Wherein: • FICA(or B), is the FIC of drug A (or B) MICA (or B) is the MIC of the organism to drug A (or B) • A (or B) is concentration of drug A (or B) that is the lowest inhibitory concentration
(§7) The FIC indices were interpreted using the following criteria: • ≦0.5=Synergy • >0.5–1.0=Additive • >1.0–4.0=Indifference • >4.0=Antagonism
(§8) The test organisms were clinical isolates collected in Korea. Organisms were frozen at −70 C. prior to testing. […] Gemifloxacin or ciprofloxacin solution was dispensed alone in the first row and combined with ceftazidime in the remaining rows. Ceftazidime as also dispensed alone in the first row in the first column. Test strains of P. aeruginosa were grown for 18 h in Mueller-Hinton broth, and then these overnight cultures were diluted with the same fresh medium to the density of approximately 10^7 CFU/mL. The bacterial concentrations were determined by measuring optical density or turbidity of the suspension and were verified by standard colony counts on antibiotic-free agar plates. A diluted bacterial solution was applied to 96-well plates containing serially diluted antimicrobial agents to yield 5×10^5 CFU/mL. Plates were incubated at 35 C for 18 hours.
MICs for each separate drug were determined, and for wells along the growth-no growth interface, synergy was determined by calculating FIC Indices as in Example 4. FIC Indices were calculated and interpreted as in Example 4.

Assay [2] concerns clinically isolated P. aeruginosa. Nature of the assay: checkerboard titration, gemifloxacin or ciprofloxacin with ceftazidime, 27 clinical isolates (Example 4). The format is cell-based, Pseudomonas aeruginosa. The following applies: for FICB: FIC of ceftazidime; for MIC: Pseudomonas aeruginosa. As to the method:
as §8, with “C” for “C.”, “testing. Testing was done by the checkerboard method in 96-well plates using Mueller-Hinton broth.” for “testing.”, “Ceftazidime” for “Gemifloxacin or ciprofloxacin solution”, “was” for “was dispensed alone in the first row and combined with ceftazidime in the remaining rows. Ceftazidime as”, “10^4 CFU per spot.” for “5×10^5 CFU/mL.”, “aerobically overnight.” for “at 35 C for 18 hours.”
as §6, §7

The mark [3] stands for this setting: drug alone, no unit in this line (other lines μg/ml).

Experimental for S. saprophyticus 662: The concentration range tested varied for each drug/organism combination to encompass the MIC endpoints of the individual components. […] The last well (H) in column 12 was used as a positive growth control well, containing only medium and test isolate.
The bacteria were diluted to a 0.5 McFarland standard and then further diluted 1/50. Each well was inoculated with 25 μl of the isolate to give a final inoculum density of approximately 5×10^5 cfu/ml. […] After inoculation, the plates were covered with a 96 well microtitre plate lid and incubated at 35° C. in ambient air for 20–24 hours. A 10 μl aliquot of the inoculum was plated on trypticase soy agar containing 5% sheep blood to determine the purity of the final test inoculum.
2) S. saprophyticus 662 was obtained from the SmithKline Beecham Anti-Infectives Research Culture Collection and stored at −80° C. in 10% glycerol. Before testing, the isolate was passaged onto agar plates (trypticase soy agar containing 5% sheeps blood) from the frozen stock for two consecutive days. Cation adjusted Mueller Hinton broth (BBL, Cockeysville, Md.) was used for the isolate.
The combined effect of gemifloxacin and amoxicillin was investigated in S. saprophyticus 662 by using the checkerboard titration method described in Example 1.

Take `CC1(C)S[C@@H]2[C@H](NC(=O)[C@H](N)c3ccc(O)cc3)C(=O)N2[C@H]1C(=O)O` [amoxicillin]: the MIC – broadly, the least concentration at which growth counts as inhibited – in the assay with S. saprophyticus 662 (Staphylococcus saprophyticus, 662, in presence of gemifloxacin 0.004 μg/ml, read-out: amoxicillin MIC) came out at 0.125 µg/mL.

For `N[C@@H](C(=O)N[C@@H]1C(=O)N2C(C(=O)O)=C(Cl)CS[C@H]12)c1ccccc1` [cefaclor], in the assay on E. coli ATCC 25922 (Escherichia coli, ATCC25922, in presence of gemifloxacin 0.002 μg/ml, read-out: cefaclor MIC), the MIC was found to be 1 µg/mL. The “cefaclor MIC” value in the assay with E. coli ATCC 25922 (setting [3]) turned out to be 4.

On to `CO/N=C(\C(=O)N[C@@H]1C(=O)N2C(C(=O)O)=C(COC(C)=O)CS[C@H]12)c1csc(N)n1` [cefotaxime], for which the MIC in the assay with E. faecalis ATCC 29212 (Enterococcus faecalis, ATCC29212, in presence of gemifloxacin 0.008 μg/ml, read-out: cefotaxime MIC) was determined as 16 µg/mL. Moreover, in the assay on E. faecalis ATCC 29212 (setting [3]), the “cefotaxime MIC” value is 256. Moreover, the “amoxicillin MIC” value in the assay with S. saprophyticus 662 (setting [3]) is 0.5.

Take `CC(C)(O/N=C(\C(=O)N[C@@H]1C(=O)N2C(C(=O)[O-])=C(C[n+]3ccccc3)CS[C@H]12)c1csc(N)n1)C(=O)O` [ceftazidime]: the FICB in assay [1] (P. aeruginosa 6140) is recorded as 0.25; in assay [1] (P. aeruginosa 6168), 0.06; in assay [1] (P. aeruginosa P003), 0.06; in assay [2] (P. aeruginosa 6003) it was 0.25; in assay [2] (P. aeruginosa 6021), 0.25; in assay [2] (P. aeruginosa 6030), 0.25. The FICB in assay [2] (P. aeruginosa 6045) stood at 0.13; in assay [2] (P. aeruginosa 6047), 0.03; in assay [2] (P. aeruginosa 6113) it was 0.25; in assay [2] (P. aeruginosa 6123), 0.25; in assay [2] (P. aeruginosa 6173) it was 0.25; in assay [2] (P. aeruginosa P032), 0.25. Also, the FICB worked out at 0.13 in assay [2] (P. aeruginosa P036) and 0.25 in assay [2] (P. aeruginosa P039). Further, the minimum inhibitory concentration (MIC) amounted to 32 µg/mL in assay [1] (P. aeruginosa 6140, drug alone, read-out: ceftazidime MIC); 8 µg/mL in assay [1] (P. aeruginosa 6140, in combination with gemifloxacin, read-out: Cceftazidime MIC); 32 µg/mL in assay [1] (P. aeruginosa 6168, drug alone, read-out: ceftazidime MIC); 2 µg/mL in assay [1] (P. aeruginosa 6168, in combination with gemifloxacin, read-out: Cceftazidime MIC); 32 µg/mL in assay [1] (P. aeruginosa P003, drug alone, read-out: ceftazidime MIC); 2 µg/mL in assay [1] (P. aeruginosa P003, in combination with gemifloxacin, read-out: Cceftazidime MIC). Besides, the MIC in assay [2] (P. aeruginosa 6003, drug alone, read-out: ceftazidime MIC) worked out at 4 µg/mL; in assay [2] (P. aeruginosa 6003, in combination with gemifloxacin, read-out: Cceftazidime MIC), 1 µg/mL; in assay [2] (P. aeruginosa 6021, drug alone, read-out: ceftazidime MIC) it was 4 µg/mL; in assay [2] (P. aeruginosa 6021, in combination with gemifloxacin, read-out: Cceftazidime MIC) it was 1 µg/mL; in assay [2] (P. aeruginosa 6030, drug alone, read-out: ceftazidime MIC), 4 µg/mL; in assay [2] (P. aeruginosa 6030, in combination with gemifloxacin, read-out: Cceftazidime MIC), 1 µg/mL. Moreover, the minimum inhibitory concentration (MIC) in assay [2] (P. aeruginosa 6045, drug alone, read-out: ceftazidime MIC) was determined as 64 µg/mL; in assay [2] (P. aeruginosa 6045, in combination with gemifloxacin, read-out: Cceftazidime MIC), 8 µg/mL; in assay [2] (P. aeruginosa 6047, drug alone, read-out: ceftazidime MIC) it was 64 µg/mL; in assay [2] (P. aeruginosa 6047, in combination with gemifloxacin, read-out: Cceftazidime MIC) it was 2 µg/mL; in assay [2] (P. aeruginosa 6113, drug alone, read-out: ceftazidime MIC), 8 µg/mL; in assay [2] (P. aeruginosa 6113, in combination with gemifloxacin, read-out: Cceftazidime MIC), 2 µg/mL. Moreover, the MIC in assay [2] (P. aeruginosa 6123, drug alone, read-out: ceftazidime MIC) was determined as 4 µg/mL; in assay [2] (P. aeruginosa 6123, in combination with gemifloxacin, read-out: Cceftazidime MIC), 1 µg/mL; in assay [2] (P. aeruginosa 6173, drug alone, read-out: ceftazidime MIC), 4 µg/mL; in assay [2] (P. aeruginosa 6173, in combination with gemifloxacin, read-out: Cceftazidime MIC), 1 µg/mL; in assay [2] (P. aeruginosa P032, drug alone, read-out: ceftazidime MIC), 4 µg/mL; in assay [2] (P. aeruginosa P032, in combination with gemifloxacin, read-out: Cceftazidime MIC), 1 µg/mL. The minimum inhibitory concentration (MIC) in assay [2] (P. aeruginosa P036, drug alone, read-out: ceftazidime MIC) worked out at 32 µg/mL; in assay [2] (P. aeruginosa P036, in combination with gemifloxacin, read-out: Cceftazidime MIC), 4 µg/mL; in assay [2] (P. aeruginosa P039, drug alone, read-out: ceftazidime MIC), 8 µg/mL; in assay [2] (P. aeruginosa P039, in combination with gemifloxacin, read-out: Cceftazidime MIC), 2 µg/mL.
